Test results reported in ChEMBL document CHEMBL4507261, “Data for DCP probe A-192621” (2021).

Experiments:
[1] = tested on: Proto-oncogene tyrosine-protein kinase receptor Ret (Homo sapiens), P07949 [V804M]; details: Compound concentration 1000.0 nM
[2] = tested on: Mast/stem cell growth factor receptor Kit (Homo sapiens), P10721 [A829P]; details: Compound concentration 1000.0 nM
[3] = target: T1, Alpha-2B adrenergic receptor (Homo sapiens) (UniProt P18089); assay: Alpha2B (h) Eurofins-Cerep binding assay; parameters: ligand concentration 2.5 nM; details: filed as antagonist, Compound concentration 10.0 uM
T1 sequence (whole entry): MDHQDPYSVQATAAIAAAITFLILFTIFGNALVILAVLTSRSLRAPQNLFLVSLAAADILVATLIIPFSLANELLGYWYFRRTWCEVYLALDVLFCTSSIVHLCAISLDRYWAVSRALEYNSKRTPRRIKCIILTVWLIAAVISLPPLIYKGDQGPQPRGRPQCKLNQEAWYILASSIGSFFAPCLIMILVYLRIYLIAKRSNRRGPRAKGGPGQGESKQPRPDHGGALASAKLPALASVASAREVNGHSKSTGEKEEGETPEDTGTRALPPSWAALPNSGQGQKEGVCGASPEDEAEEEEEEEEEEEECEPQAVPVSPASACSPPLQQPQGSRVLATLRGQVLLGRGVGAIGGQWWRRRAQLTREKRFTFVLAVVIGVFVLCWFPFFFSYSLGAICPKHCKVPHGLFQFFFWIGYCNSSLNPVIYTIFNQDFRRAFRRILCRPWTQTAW

[4] = species on record: Rattus norvegicus; assay: SKCa channel Eurofins-Cerep binding assay; parameters: ligand concentration 0.007 nM; details: filed as antagonist, Compound concentration 10.0 uM
[5] = target: Serine/threonine-protein kinase MARK1 (Homo sapiens) (UniProt Q9P0L2); details: Compound concentration 1000.0 nM
[6] = target: Casein kinase I isoform gamma-2 (Homo sapiens) (UniProt P78368); details: Compound concentration 1000.0 nM
[7] = target: Cyclin-dependent kinase 15 (Homo sapiens) (UniProt Q96Q40); details: Compound concentration 1000.0 nM
[8] = target: Calcium/calmodulin-dependent protein kinase type 1 (Homo sapiens) (UniProt Q14012); details: Compound concentration 1000.0 nM
[9] = target: Dual specificity testis-specific protein kinase 1 (Homo sapiens) (UniProt Q15569); details: Compound concentration 1000.0 nM
[10] = target: Beta-1 adrenergic receptor (Homo sapiens) (UniProt P08588); assay: Beta1 (h) Eurofins-Cerep binding assay; parameters: ligand concentration 0.3 nM; details: filed as agonist, Compound concentration 10.0 uM
[11] = target: Serine/threonine-protein kinase Chk1 (Homo sapiens) (UniProt O14757); details: Compound concentration 1000.0 nM
[12] = target: Glycogen synthase kinase-3 alpha (Homo sapiens) (UniProt P49840); details: Compound concentration 1000.0 nM
[13] = target: cGMP-dependent protein kinase 2 (Homo sapiens) (UniProt Q13237); details: Compound concentration 1000.0 nM
[14] = target: Serine/threonine-protein kinase 35 (Homo sapiens) (UniProt Q8TDR2); details: Compound concentration 1000.0 nM
[15] = target: Platelet-derived growth factor receptor beta (Homo sapiens) (UniProt P09619); details: Compound concentration 1000.0 nM
[16] = target: T2, 5-hydroxytryptamine receptor 3A (Homo sapiens) (UniProt P46098); assay: 5-HT3 (h) Eurofins-Cerep binding assay; parameters: ligand concentration 0.5 nM; details: filed as antagonist, Compound concentration 10.0 uM
T2 sequence (whole entry): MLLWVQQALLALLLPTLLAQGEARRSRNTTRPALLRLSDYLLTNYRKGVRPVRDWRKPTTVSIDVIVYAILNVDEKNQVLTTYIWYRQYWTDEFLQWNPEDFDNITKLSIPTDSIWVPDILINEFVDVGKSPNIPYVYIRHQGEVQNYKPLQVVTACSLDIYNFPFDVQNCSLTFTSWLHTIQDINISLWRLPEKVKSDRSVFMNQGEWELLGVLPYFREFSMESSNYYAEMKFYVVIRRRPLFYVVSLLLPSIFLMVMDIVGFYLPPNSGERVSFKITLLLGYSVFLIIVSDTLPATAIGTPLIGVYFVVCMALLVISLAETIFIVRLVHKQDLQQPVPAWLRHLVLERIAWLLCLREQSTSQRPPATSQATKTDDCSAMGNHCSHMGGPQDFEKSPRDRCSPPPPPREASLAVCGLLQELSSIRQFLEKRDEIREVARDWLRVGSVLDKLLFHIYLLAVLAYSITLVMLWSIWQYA

[17] = target: Serine/threonine-protein kinase TAO3 (Homo sapiens) (UniProt Q9H2K8); details: Compound concentration 1000.0 nM
[18] = target: Ribosomal protein S6 kinase alpha-2 (Homo sapiens) (UniProt Q15349); details: Compound concentration 1000.0 nM
[19] = target: Serine/threonine-protein kinase DCLK2 (Homo sapiens) (UniProt Q8N568); details: Compound concentration 1000.0 nM
[20] = target: Serine/threonine-protein kinase PLK4 (Homo sapiens) (UniProt O00444); details: Compound concentration 1000.0 nM
[21] = target: Phosphatidylinositol 4,5-bisphosphate 3-kinase catalytic subunit beta isoform (Homo sapiens) (UniProt P42338); details: Compound concentration 1000.0 nM
[22] = target: Myosin light chain kinase 2, skeletal/cardiac muscle (Homo sapiens) (UniProt Q9H1R3); details: Compound concentration 1000.0 nM
[23] = target: 5'-AMP-activated protein kinase catalytic subunit alpha-2 (Homo sapiens) (UniProt P54646); details: Compound concentration 1000.0 nM
[24] = target: Serine/threonine-protein kinase WNK3 (Homo sapiens) (UniProt Q9BYP7); details: Compound concentration 1000.0 nM
[25] = target: Cytoplasmic tyrosine-protein kinase BMX (Homo sapiens) (UniProt P51813); details: Compound concentration 1000.0 nM
[26] = target: Serine/threonine-protein kinase PAK 5 (Homo sapiens) (UniProt Q9P286); details: Compound concentration 1000.0 nM
[27] = target: Serine/threonine-protein kinase Nek9 (Homo sapiens) (UniProt Q8TD19); details: Compound concentration 1000.0 nM
[28] = target: 5'-AMP-activated protein kinase catalytic subunit alpha-1 (Homo sapiens) (UniProt Q13131); details: Compound concentration 1000.0 nM
[29] = target: Adenosine receptor A3 (Homo sapiens) (UniProt P0DMS8); assay: A3 (h) Eurofins-Cerep binding assay; parameters: ligand concentration 0.15 nM; details: filed as agonist, Compound concentration 10.0 uM
[30] = tested on: Phosphatidylinositol 4,5-bisphosphate 3-kinase catalytic subunit alpha isoform (Homo sapiens), P42336 [H1047Y]; details: Compound concentration 1000.0 nM
[31] = tested on: Receptor-type tyrosine-protein kinase FLT3 (Homo sapiens), P36888 [R834Q]; details: Compound concentration 1000.0 nM
[32] = target: Cyclin-dependent kinase 5 (Homo sapiens) (UniProt Q00535); details: Compound concentration 1000.0 nM

Dual specificity testis-specific protein kinase 1 (Homo sapiens), sequence (Q15569 whole entry, looked up): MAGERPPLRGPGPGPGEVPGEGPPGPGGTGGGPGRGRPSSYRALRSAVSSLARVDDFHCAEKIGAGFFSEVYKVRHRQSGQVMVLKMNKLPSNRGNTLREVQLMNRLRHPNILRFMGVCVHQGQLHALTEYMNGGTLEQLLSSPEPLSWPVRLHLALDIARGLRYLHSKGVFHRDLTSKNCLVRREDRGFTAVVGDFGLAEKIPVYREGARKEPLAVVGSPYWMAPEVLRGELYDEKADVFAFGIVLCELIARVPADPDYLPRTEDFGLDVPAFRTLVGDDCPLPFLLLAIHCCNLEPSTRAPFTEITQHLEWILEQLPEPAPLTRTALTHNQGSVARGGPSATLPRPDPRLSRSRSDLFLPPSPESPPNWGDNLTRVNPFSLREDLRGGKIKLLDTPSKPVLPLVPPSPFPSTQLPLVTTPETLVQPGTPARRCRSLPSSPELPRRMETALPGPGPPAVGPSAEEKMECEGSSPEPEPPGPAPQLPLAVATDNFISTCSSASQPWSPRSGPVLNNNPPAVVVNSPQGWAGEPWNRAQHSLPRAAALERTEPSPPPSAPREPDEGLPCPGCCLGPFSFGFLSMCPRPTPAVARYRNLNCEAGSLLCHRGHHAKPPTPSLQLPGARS
cGMP-dependent protein kinase 2 (Homo sapiens), sequence (Q13237 whole entry): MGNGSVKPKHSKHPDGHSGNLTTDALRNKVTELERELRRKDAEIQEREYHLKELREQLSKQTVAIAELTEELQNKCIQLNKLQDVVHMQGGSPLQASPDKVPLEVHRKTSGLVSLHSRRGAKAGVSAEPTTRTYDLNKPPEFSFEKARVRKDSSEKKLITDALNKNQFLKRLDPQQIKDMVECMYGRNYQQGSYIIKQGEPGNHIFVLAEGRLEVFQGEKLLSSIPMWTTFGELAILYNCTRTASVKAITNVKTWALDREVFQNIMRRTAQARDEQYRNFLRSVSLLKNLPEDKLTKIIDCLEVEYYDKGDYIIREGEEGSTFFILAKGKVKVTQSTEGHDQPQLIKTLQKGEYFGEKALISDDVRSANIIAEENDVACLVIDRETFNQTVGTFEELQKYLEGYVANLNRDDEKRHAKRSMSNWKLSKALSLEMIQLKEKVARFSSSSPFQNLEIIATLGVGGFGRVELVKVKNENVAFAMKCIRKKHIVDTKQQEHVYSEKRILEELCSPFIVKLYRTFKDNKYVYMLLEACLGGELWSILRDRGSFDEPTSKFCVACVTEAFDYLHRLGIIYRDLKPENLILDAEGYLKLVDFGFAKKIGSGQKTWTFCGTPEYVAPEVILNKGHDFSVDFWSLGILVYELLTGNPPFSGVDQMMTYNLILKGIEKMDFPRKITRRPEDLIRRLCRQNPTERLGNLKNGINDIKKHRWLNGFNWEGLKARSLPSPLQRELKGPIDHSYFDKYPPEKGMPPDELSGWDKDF
Serine/threonine-protein kinase PAK 5 (Homo sapiens), sequence (Q9P286 whole entry, looked up): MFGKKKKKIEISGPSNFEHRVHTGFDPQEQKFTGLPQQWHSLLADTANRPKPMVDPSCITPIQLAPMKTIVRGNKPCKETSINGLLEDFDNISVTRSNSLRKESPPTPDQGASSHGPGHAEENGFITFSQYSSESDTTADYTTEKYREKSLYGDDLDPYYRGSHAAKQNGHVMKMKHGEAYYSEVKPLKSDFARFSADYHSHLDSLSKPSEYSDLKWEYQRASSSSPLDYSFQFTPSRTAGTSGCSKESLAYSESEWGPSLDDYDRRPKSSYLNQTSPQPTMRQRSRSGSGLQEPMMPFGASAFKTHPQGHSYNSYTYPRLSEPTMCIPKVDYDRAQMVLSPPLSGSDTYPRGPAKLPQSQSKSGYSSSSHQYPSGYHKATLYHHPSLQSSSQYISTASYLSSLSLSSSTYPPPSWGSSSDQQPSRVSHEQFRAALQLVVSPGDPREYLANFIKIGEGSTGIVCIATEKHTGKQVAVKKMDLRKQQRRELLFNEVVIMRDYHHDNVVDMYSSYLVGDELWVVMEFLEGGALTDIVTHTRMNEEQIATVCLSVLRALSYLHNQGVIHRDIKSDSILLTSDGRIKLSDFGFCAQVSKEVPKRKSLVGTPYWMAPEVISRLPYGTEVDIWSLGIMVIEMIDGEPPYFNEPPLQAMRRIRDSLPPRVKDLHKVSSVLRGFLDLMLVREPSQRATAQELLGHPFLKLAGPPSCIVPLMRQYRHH
Phosphatidylinositol 4,5-bisphosphate 3-kinase catalytic subunit alpha isoform (Homo sapiens), P42336 [H1047Y], sequence (P42336 whole entry H1047Y, canonical isoform): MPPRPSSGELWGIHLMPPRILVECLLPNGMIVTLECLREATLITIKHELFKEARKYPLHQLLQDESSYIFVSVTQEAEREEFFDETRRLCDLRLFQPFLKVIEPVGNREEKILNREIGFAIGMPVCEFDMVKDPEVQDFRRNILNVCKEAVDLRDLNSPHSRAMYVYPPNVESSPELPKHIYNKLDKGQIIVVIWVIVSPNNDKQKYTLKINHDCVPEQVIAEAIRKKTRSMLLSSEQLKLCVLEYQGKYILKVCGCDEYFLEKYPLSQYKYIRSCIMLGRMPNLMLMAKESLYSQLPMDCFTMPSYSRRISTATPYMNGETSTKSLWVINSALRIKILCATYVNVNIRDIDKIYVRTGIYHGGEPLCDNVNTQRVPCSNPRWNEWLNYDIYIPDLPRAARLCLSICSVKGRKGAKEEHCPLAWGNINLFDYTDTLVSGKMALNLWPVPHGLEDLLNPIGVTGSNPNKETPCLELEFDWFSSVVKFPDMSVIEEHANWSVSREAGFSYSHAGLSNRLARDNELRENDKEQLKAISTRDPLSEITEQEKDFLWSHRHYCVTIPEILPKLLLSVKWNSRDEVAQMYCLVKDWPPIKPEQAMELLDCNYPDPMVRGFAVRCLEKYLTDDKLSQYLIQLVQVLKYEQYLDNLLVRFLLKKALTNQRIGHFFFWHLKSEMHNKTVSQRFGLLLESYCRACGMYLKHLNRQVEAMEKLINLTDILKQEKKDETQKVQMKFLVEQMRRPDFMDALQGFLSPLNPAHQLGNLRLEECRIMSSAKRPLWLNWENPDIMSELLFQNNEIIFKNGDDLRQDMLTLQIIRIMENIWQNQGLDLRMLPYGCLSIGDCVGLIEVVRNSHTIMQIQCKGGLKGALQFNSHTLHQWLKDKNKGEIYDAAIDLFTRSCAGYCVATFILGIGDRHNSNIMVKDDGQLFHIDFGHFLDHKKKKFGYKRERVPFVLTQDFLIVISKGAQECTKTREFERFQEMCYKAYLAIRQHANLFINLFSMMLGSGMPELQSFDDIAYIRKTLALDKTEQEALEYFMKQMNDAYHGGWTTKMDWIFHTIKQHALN
Serine/threonine-protein kinase PLK4 (Homo sapiens), sequence (O00444 whole entry, canonical isoform): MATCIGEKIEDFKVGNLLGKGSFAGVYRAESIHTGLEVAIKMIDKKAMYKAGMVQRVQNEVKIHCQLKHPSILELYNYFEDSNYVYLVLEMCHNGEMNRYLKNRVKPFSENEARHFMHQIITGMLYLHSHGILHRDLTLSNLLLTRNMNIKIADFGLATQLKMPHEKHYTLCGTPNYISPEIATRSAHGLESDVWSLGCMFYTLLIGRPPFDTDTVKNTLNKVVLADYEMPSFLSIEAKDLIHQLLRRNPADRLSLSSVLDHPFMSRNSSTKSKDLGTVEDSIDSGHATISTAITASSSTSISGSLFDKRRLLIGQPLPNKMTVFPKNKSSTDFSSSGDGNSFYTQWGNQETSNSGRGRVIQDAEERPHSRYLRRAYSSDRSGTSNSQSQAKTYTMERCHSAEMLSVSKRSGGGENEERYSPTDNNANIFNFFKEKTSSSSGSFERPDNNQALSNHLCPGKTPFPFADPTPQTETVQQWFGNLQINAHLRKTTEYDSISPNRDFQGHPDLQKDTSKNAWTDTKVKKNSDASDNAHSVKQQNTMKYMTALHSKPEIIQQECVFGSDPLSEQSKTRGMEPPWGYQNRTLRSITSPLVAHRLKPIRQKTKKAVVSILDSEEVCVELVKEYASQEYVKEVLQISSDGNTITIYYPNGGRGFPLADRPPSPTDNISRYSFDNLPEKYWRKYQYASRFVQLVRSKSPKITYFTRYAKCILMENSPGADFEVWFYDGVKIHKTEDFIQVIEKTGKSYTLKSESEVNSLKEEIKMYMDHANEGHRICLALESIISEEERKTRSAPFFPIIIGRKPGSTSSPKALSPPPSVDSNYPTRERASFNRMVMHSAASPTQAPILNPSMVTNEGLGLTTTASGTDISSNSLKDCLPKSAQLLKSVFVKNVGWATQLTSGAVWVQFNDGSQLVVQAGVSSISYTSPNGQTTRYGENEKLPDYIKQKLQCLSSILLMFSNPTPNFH
Myosin light chain kinase 2, skeletal/cardiac muscle (Homo sapiens), sequence (Q9H1R3 whole entry): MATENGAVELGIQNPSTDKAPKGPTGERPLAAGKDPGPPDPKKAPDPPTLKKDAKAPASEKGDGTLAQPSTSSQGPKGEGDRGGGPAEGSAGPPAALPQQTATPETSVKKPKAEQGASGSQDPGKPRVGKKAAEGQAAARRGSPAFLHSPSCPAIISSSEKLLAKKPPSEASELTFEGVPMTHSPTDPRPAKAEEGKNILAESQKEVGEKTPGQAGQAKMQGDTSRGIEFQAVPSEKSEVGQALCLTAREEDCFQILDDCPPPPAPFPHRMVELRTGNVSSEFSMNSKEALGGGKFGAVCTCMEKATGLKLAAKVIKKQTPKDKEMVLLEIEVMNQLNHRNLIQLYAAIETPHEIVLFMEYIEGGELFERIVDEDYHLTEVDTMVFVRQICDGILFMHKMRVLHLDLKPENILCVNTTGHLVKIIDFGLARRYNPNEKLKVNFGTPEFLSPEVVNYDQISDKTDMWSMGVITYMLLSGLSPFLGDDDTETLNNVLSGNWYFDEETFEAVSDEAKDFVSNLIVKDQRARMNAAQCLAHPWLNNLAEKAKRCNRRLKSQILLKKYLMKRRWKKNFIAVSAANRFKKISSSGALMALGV
Adenosine receptor A3 (Homo sapiens), sequence (P0DMS8 whole entry, canonical isoform): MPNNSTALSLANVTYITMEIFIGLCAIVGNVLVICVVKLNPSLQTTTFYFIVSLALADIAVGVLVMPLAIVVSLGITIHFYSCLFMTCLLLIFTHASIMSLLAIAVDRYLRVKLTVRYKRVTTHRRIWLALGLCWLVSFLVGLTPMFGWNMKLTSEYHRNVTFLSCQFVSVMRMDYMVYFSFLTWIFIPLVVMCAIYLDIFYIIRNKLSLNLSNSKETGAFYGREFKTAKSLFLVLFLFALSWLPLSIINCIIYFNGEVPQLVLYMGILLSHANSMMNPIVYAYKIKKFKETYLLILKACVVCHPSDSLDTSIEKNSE

Question: Which results are given for `CCCOc1ccc([C@H]2[C@H](C(=O)O)[C@@H](c3ccc4c(c3)OCO4)CN2CC(=O)Nc2c(CC)cccc2CC)cc1` [A-192621]?
Answer: residual activity [1]: 100%; residual activity [2]: 63%; % Inhibition of Control Specific Binding (Mean n=2) [3]: 7.4%; % Inhibition of Control Specific Binding (Mean n=2) [4]: 0.5%; residual activity [5]: 100%; residual activity [6]: 100%; residual activity [7]: 94%; residual activity [8]: 93%; residual activity [9]: 89%; % Inhibition of Control Specific Binding (Mean n=2) [10]: 1.4%; residual activity [11]: 98%; residual activity [12]: 86%; residual activity [13]: 82%; residual activity [14]: 92%; residual activity [15]: 100%; % Inhibition of Control Specific Binding (Mean n=2) [16]: -10.7%; residual activity [17]: 81%; residual activity [18]: 93%; residual activity [19]: 77%; residual activity [20]: 78%; residual activity [21]: 73%; residual activity [22]: 91%; residual activity [23]: 100%; residual activity [24]: 90%; residual activity [25]: 100%; residual activity [26]: 73%; residual activity [27]: 95%; residual activity [28]: 100%; % Inhibition of Control Specific Binding (Mean n=2) [29]: 47.4%; residual activity [30]: 78%; residual activity [31]: 91%; residual activity [32]: 100%

Question: Which results are given for `CCCOc1ccc([C@@H]2[C@@H](C(=O)O)[C@H](c3ccc4c(c3)OCO4)CN2CC(=O)Nc2c(CC)cccc2CC)cc1` [A-1806262]?
Answer: residual activity [1]: 94%; residual activity [2]: 66%; % Inhibition of Control Specific Binding (Mean n=2) [3]: 1.5%; % Inhibition of Control Specific Binding (Mean n=2) [4]: -2%; residual activity [5]: 100%; residual activity [6]: 96%; residual activity [7]: 93%; residual activity [8]: 100%; residual activity [9]: 100%; % Inhibition of Control Specific Binding (Mean n=2) [10]: 8.2%; residual activity [11]: 86%; residual activity [12]: 100%; residual activity [13]: 83%; residual activity [14]: 98%; residual activity [15]: 100%; % Inhibition of Control Specific Binding (Mean n=2) [16]: -7.1%; residual activity [17]: 100%; residual activity [18]: 100%; residual activity [19]: 85%; residual activity [20]: 82%; residual activity [21]: 92%; residual activity [22]: 93%; residual activity [23]: 95%; residual activity [24]: 94%; residual activity [25]: 100%; residual activity [26]: 88%; residual activity [27]: 100%; residual activity [28]: 96%; % Inhibition of Control Specific Binding (Mean n=2) [29]: 37.6%; residual activity [30]: 100%; residual activity [31]: 100%; residual activity [32]: 100%
